Reference: PMC10052474, “Carbon Fixation in the Chemolithoautotrophic Bacterium Aquifex aeolicus Involves Two Low-Potential Ferredoxins as Partners of the PFOR and OGOR Enzymes” (Life, 2023)

Tests used:
[1] = biological target: 2-oxoglutarate:ferredoxin oxidoreductase (OGOR) of Aquifex aeolicus, five-subunit complex FORαβγδε (Aquifex aeolicus (endogenous in A. aeolicus VF5 cells)) (UniProt O67229); assay: native gel or EMSA; 3-12% Blue Native gel of elution fraction 2 of the Fd7Strep pull-down; in-gel PFOR and OGOR activity at roughly 300 kDa; proteins of the activity bands identified by mass spectrometry; for the self-association: dimer of the αβγδε protomer, from the estimated mass
[2] = biological target: T1, PFOR (pyruvate:ferredoxin oxidoreductase, Porαβγδε) (Aquifex aeolicus, UniProt O67254+O67255+O67256); assay: spectrophotometric methyl viologen reduction at […] nm, enriched fraction; in-gel activity; type: biochemical; settings: 10 mM pyruvate, 0.1 mM CoA, 0.2 mM TPP, 1 mM MgCl2, 5 mM methyl viologen, pH 8, 80 °C, anaerobic; decarboxylation direction
T1 construct: gene forA1; native, enriched from soluble fraction (DEAE step); dimer of pentamers (αβγδε)2, about 250-300 kDa; with pyruvate:ferredoxin oxidoreductase subunit epsilon (ferredoxin-like, Fd3); pyruvate:ferredoxin oxidoreductase subunit delta

[3] = biological target: T2, Fd7Strep (recombinant ferredoxin 7) (Aquifex aeolicus, UniProt Z9T2O6C3G9); assay: EPR spectroscopy and UV-visible absorption; type: binding; settings: purified protein, dithionite-reduced, […] K
T2 construct: full length with C-terminal Strep-tag II, expressed in E. coli MG1655 ΔiscR; native protein 80 residues, apoprotein 9130 Da; native N-terminus […]
T2 sequence (Z9T2O6C3G9 1-80): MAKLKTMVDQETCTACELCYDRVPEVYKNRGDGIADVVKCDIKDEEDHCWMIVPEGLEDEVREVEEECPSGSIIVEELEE

[4] = biological target: T3, OGOR (2-oxoglutarate:ferredoxin oxidoreductase, Forαβγδε) (Aquifex aeolicus, UniProt O67229+O67230+O67231); assay: spectrophotometric methyl viologen reduction at […] nm, enriched fraction; in-gel activity; type: biochemical; settings: 10 mM 2-oxoglutarate, 0.1 mM CoA, 0.2 mM TPP, 1 mM MgCl2, 5 mM methyl viologen, pH 8, 80 °C, anaerobic; decarboxylation direction
T3 construct: gene forA2; native, enriched from soluble fraction (DEAE, then Bio-Gel HTP); dimer of pentamers (αβγδε)2, about 250-300 kDa; Aq_1163 may co-migrate; with 2-oxoglutarate:ferredoxin oxidoreductase subunit epsilon (ferredoxin-like, Fd2); 2-oxoglutarate:ferredoxin oxidoreductase subunit delta

[5] = biological target: pyruvate:ferredoxin oxidoreductase (PFOR) of Aquifex aeolicus, five-subunit complex PORαβγδε (Aquifex aeolicus (endogenous in A. aeolicus VF5 cells)) (UniProt O67254); assay: native gel or EMSA; 3-12% Blue Native gel of elution fraction 2 of the Fd7Strep pull-down; in-gel PFOR and OGOR activity at roughly 300 kDa; proteins of the activity bands identified by mass spectrometry; for the self-association: dimer of the αβγδε protomer, from the estimated mass

T1 sequence (O67255 entry or part of it): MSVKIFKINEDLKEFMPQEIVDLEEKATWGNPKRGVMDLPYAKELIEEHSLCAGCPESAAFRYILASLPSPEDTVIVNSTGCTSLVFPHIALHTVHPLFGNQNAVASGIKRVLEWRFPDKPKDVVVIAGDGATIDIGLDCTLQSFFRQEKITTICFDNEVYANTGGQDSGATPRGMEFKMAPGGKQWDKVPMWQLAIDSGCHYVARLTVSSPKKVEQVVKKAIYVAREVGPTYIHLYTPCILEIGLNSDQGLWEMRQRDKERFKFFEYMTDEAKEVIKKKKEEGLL
T1 sequence (O67254 entry or part of it): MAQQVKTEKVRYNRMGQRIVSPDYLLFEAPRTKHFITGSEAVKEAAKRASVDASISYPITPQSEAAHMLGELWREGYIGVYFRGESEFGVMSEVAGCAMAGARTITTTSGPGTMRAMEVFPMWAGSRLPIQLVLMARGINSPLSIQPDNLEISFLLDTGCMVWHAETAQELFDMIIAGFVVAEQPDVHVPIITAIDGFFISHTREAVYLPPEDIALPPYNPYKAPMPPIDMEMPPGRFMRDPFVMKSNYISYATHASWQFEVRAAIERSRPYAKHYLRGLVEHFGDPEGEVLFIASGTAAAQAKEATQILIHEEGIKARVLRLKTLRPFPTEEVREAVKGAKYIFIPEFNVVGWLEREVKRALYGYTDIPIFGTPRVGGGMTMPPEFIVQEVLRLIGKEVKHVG
T1 sequence (O67256 entry or part of it): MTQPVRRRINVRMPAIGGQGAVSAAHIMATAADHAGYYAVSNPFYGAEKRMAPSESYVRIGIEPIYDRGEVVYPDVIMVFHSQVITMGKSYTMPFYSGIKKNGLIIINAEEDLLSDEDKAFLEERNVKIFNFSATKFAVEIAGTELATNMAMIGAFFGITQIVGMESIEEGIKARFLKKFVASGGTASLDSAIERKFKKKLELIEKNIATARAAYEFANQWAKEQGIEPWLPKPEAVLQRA
T1 sequence (O67251 whole entry, further chain): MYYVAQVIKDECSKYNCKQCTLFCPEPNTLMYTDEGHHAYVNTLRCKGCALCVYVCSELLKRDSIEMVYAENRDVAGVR
T1 sequence (O67252 entry or part of it, further chain): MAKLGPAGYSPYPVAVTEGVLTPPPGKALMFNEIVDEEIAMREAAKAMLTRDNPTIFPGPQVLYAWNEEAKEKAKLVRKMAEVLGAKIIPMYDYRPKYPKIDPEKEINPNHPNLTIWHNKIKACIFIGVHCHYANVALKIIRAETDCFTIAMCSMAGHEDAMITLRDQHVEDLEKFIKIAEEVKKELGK
T3 sequence (O67229 1-389): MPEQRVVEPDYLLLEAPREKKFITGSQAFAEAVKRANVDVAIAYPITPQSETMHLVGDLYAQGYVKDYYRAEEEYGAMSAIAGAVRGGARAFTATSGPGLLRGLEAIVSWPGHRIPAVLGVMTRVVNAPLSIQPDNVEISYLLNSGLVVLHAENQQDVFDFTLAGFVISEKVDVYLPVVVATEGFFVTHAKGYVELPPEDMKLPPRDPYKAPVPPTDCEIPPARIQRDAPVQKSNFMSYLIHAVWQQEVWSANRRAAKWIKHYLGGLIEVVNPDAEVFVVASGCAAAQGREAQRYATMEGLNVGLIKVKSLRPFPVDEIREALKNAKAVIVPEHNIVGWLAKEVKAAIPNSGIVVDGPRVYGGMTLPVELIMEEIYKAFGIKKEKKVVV
T3 sequence (O67230 1-289): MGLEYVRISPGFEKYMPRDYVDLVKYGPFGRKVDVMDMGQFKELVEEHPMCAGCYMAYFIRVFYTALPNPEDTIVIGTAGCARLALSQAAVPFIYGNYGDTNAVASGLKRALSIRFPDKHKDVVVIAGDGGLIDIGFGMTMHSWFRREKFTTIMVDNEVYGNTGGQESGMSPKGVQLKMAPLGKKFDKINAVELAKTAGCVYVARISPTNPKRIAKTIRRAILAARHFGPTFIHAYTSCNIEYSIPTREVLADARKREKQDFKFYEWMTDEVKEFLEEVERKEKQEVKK
T3 sequence (O67231 1-230): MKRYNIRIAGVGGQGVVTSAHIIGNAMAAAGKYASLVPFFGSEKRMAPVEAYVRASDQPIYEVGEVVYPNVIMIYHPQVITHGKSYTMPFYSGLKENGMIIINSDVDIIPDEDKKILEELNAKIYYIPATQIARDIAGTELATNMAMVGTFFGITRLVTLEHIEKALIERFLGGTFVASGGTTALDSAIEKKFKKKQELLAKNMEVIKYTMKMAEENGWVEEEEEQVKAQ
T3 sequence (O67228 29-244 partner limits assumed): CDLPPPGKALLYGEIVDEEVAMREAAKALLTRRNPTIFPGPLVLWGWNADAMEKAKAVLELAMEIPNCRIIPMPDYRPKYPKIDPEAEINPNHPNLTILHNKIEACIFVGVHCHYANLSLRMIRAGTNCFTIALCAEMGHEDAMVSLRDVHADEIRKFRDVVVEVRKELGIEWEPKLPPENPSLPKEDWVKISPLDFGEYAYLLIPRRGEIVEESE
T3 sequence (O67232 whole entry partner): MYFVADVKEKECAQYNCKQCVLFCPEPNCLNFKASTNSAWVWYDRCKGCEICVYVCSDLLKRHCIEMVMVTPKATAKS

2-oxoglutarate:ferredoxin oxidoreductase (OGOR) of Aquifex aeolicus, five-subunit complex FORαβγδε (from UniProt O67229 1-389; O67230 1-289; O67231 1-230; O67232 1-78; O67228 1-244)
stoichiometry N [1]: 2

CC(=O)C(=O)O [pyruvate]
spectrophotometric methyl viologen reduction at 604 nm, enriched fraction; in-ge [2]: pyruvate for PFOR and 2-oxoglutarate for OGOR

[S]12[Fe]3[S]4[Fe]1[S]1[Fe]2[S]3[Fe]41 [[4Fe-4S] cluster]
EPR spectroscopy and UV-visible absorption [3]: confirming the presence of one [4Fe-4S] center per Fd molecule

O=C(O)CCC(=O)C(=O)O [2-oxoglutarate]
spectrophotometric methyl viologen reduction at 604 nm, enriched fraction; in-ge [4]: pyruvate for PFOR and 2-oxoglutarate for OGOR

pyruvate:ferredoxin oxidoreductase (PFOR) of Aquifex aeolicus, five-subunit complex PORαβγδε (from UniProt O67254 1-404; O67255 1-286; O67256 1-241; O67251 1-79; O67252 1-189)
stoichiometry N [5]: 2
